From ChEMBL document CHEMBL1143316, “Japonicones A-D, bioactive dimeric sesquiterpenes from Inula japonica Thunb” (Bioorg Med Chem Lett, 2009)
In brackets after ≈: the same amount, converted by molar mass.

Assays:
Format in all cases: functional, cell-based
A549 = test: Cytotoxicity against human A549 cells by MTT assay
MDA-MB-435 = test: Cytotoxicity against human MDA-MB-435 cells by MTT assay
LoVo = test: Cytotoxicity against human LoVo cells by MTT assay
CCRF-CEM = test: Cytotoxicity against human CEM cells by MTT assay

C=C1C(=O)O[C@@H]2C[C@@H](C)[C@]34C[C@]5(C(=O)O[C@H]6C[C@@]7(C)C(=C[C@H]65)[C@H](C)CC[C@@H]7O)[C@H](C(C)=C3C[C@@H]12)[C@@H]4OC(C)=O [JAPONICONE A]
IC50 (A549): 1.62 µg/mL (≈ 3.02 µM) | IC50 (MDA-MB-435): 0.198 µg/mL (≈ 0.369 µM) | IC50 (LoVo): 0.256 µg/mL (≈ 0.477 µM) | IC50 (CCRF-CEM): 0.001 µg/mL (≈ 0.00186 µM)
